Data from paper PMC3822589 (Journal of Cellular and Molecular Medicine, 2013).
“Also recorded” adds a separate entry of the source. Read-outs that look alike come from different tables or passages of the source.

Columns and labels:
[1] = system: P-STAT5 in UKE-1 cells (Jak2V617F); test: Western blot of phospho-STAT5 in UKE-1 cells; type: cell-based; details: 2.5 μM, 3 hrs
HEL cells [2] = test: Cell proliferation assay; type: cell-based, human; details: for effect on proliferation of HEL cells: 0.3 or 1 μM; for IC50: read-out: IC50 values, Proliferation assay
[3] = system: Jak2V617F phosphorylation (P-Jak2) in HEL cells; test: Western blot of phospho-Jak2 in HEL cells; type: cell-based, human; details: 0.5, 1 or 5 μM, 3 hrs
[4] = system: Phospho-STAT5 (P-STAT5) levels in HEL cells (Jak2V617F); test: Western blot of phospho-STAT5 in HEL cells; type: cell-based, human; details: for effect on phosphorylation of STAT5 (Western blot): 0.5, 1 or 5 μM, 3 hrs; for IC50 values, WB (P-STAT5) / IC50: mean ± SD
[5] = system: P-STAT5 in BA/F3-EpoR-Jak2V617F cells; test: Western blot of phospho-STAT5 in BA/F3-EpoR-Jak2V617F cells; type: cell-based, murine; details: 2.5 μM, 3 hrs
[6] = system: Jak2V617F in γ2A-FRT-TI-Jak2V617F/STAT3-YFP cells; test: STAT3-YFP translocation assay; type: cell-based; details: read-out: IC50 values, STAT3-YFP translocation assay
HEL cells [7] = test: Cell cycle analysis; type: cell-based, human; details: 500 nM CEP701, VX680, TG101209 or 100 nM AT9283
[8] = system: phosphorylation of histone H3 (target of Aurora kinase B) in HEL cells; test: Quantitative Western blot of phospho-histone H3 in HEL cells; type: cell-based, human; details: HEL cells blocked with Nocodazole; 0.25, 0.5 or 1 μM; 3 hrs
HEL cells [9] = test: Cell size determination; type: cell-based, human; details: 600 nM CEP701, TG101209, VX680 or 100 nM AT9283; 24, 48 or 72 hrs
[10] = system: CD34+ cells of Jak2V617F-positive MPN patients; test: Colony forming cell; type: cell-based, human; details: single inhibitor; 12–16 days of culture
[11] = system: 2C4, HCT-116 and K-562 cells; test: Nuclei size in cell lines not expressing Jak2V617F; type: cell-based; details: 500 nM; 48 hrs
[12] = system: phosphorylation of histone H3 in BA/F3-EpoR-Jak2V617F cells; test: Quantitative Western blot of phospho-histone H3 in BA/F3-EpoR-Jak2V617F cells; type: cell-based, murine; details: BA/F3-EpoR-Jak2V617F cells blocked with Nocodazole; 0.25, 0.5 or 1 μM; 3 hrs
[13] = system: Jak2V617F in HEK-V617F-STAT-Rep. cells; test: pSTAT-ZsGreen reporter gene assay; type: cell-based; details: for IC50: read-out: IC50 values, STAT-reporter gene assay
[14] = system: phosphorylation of histone H3 in UKE-1 cells; test: Quantitative Western blot of phospho-histone H3 in UKE-1 cells; type: cell-based; details: UKE-1 cells blocked with Nocodazole; 0.25, 0.5 or 1 μM; 3 hrs
[15] = system: γ2A-FRT-TI-Jak2V617F/STAT3-YFP cells; test: Nuclei size by confocal imaging and Cell Profiler; type: cell-based; details: 24 hrs; Cell Profiler
[16] = Homo sapiens, HEL, read-out: IC50 values, WB (P-STAT5), HEL cells
[17] = read-out: IC50 values, WB (P-STAT5), HEL cells
[18] = γ2A-FRT-TI-Jak2V617F/STAT3-YFP cells, mean ± SD
[19] = HEK-V617F-STAT-Rep. cells, 24 hrs, mean ± SD

SMILES | effect on phosphorylation of STAT5 (Western blot) [1] | effect on proliferation of HEL cells (HEL cells [2]; 72 hrs) | effect on phosphorylation of Jak2 [3] | effect on phosphorylation of STAT5 (Western blot) ([4]; HEL cells) | IC50 values, WB (P-STAT5) ([4]; HEL cells) | effect on phosphorylation of STAT5 (Western blot) [5] | effect on erythroid and myeloid colony growth [10] | IC50 [4, 17] [nM] | other results
N#C/C(=C/c1ccc(O)c(O)c1)C(=O)NCc1ccccc1 [AG490] | did not inhibit STAT5 phosphorylation | neither affected cell growth | not observed | did not inhibit the phosphorylation of STAT5 | No inhibition | did not inhibit STAT5 phosphorylation |  |  | 
O=C(Nc1c[nH]nc1-c1nc2ccc(CN3CCOCC3)cc2[nH]1)NC1CC1 [AT9283] | efficiently decreased |  | increased phosphorylation of Jak2 | strongly reduced phosphorylation of STAT5 |  | efficiently decreased |  |  | IC50 [6]: 74 ± 38 nM; effect on cell cycle profile (HEL cells [7]): emergence of an 8n peak; effect on histone H3 phosphorylation [8]: Reduction in histone H3 phosphorylation; effect on HEL cell size (HEL cells [9]): increased in size
CCN(CCCOc1ccc2c(Nc3cc(CC(=O)Nc4cccc(F)c4)n[nH]3)ncnc2c1)CCOP(=O)(O)O [AZD1152] |  |  |  |  |  |  | same behaviour |  | 
C[C@]12O[C@H](C[C@]1(O)CO)n1c3ccccc3c3c4c(c5c6ccccc6n2c5c31)CNC4=O [CEP701] | efficiently decreased | reduced proliferation of HEL cells very effectively | increased phosphorylation of Jak2 | strongly reduced phosphorylation of STAT5 |  | efficiently decreased | erythroid and myeloid colonies were equally well suppressed | 97 ± 39 | IC50 (HEL cells [2]; Homo sapiens, HEL, 72 h): 81 ± 20 nM; IC50 [6]: 45 ± 15 nM; increase in nuclei size in cell lines not expressing Jak2V617F [11]: this effect was also clearly visible; effect on cell cycle profile (HEL cells [7]): emergence of an 8n peak; effect on histone H3 phosphorylation [8]: Reduction in histone H3 phosphorylation; effect on histone H3 phosphorylation [12]: decline of histone H3 phosphorylation; IC50 [4, 16]: ~100 nM; IC50 ([13]; 24 h): 111 ± 22 nM; effect on histone H3 phosphorylation [14]: decline of histone H3 phosphorylation; effect on HEL cell size (HEL cells [9]): increased in size
CO[C@@H](C(=O)N1Cc2n[nH]c(NC(=O)c3ccc(N4CCN(C)CC4)cc3)c2C1)c1ccccc1 [Danusertib] |  |  |  |  |  |  | same behaviour |  | 
CC(C)(C)c1nc2c3cc[nH]c(=O)c3c3cc(F)ccc3c2[nH]1 [JI1] | efficiently decreased | reduced proliferation of HEL cells very effectively | increased phosphorylation of Jak2 | strongly reduced phosphorylation of STAT5 |  | efficiently decreased |  | 133 ± 62 | IC50 (HEL cells [2]; HEL cells, 72 hrs, mean ± SD): 506 ± 18 nM; IC50 [6, 18]: 197 ± 73 nM; concentration at which nuclei size increases [15]: did not have this effect; IC50 [13, 19]: 291 ± 40 nM
Nc1nc(Nc2ccc(S(N)(=O)=O)cc2)nn1C(=O)c1c(F)cccc1F [JNJ7706621] |  | neither affected cell growth | not observed | did not inhibit the phosphorylation of STAT5 | No inhibition |  |  |  | 
C/C(O)=C(\C#N)C(=O)Nc1cc(Br)ccc1Br [LFM-A13] |  | neither affected cell growth | not observed | did not inhibit the phosphorylation of STAT5 | No inhibition |  |  |  | 
O=C(Nc1cccc(Cl)c1)Nc1ncc(CCNc2ncnc3ccsc23)s1 [SNS314] |  |  |  |  |  |  | same behaviour |  | 
CCN(CC)CCNC(=O)c1c(C)[nH]c(/C=C2\C(=O)Nc3ccc(F)cc32)c1C [Sunitinib] | did not inhibit STAT5 phosphorylation | moderate effect | not observed | did not inhibit the phosphorylation of STAT5 | No inhibition | did not inhibit STAT5 phosphorylation |  |  | 
Cc1cnc(Nc2ccc(N3CCN(C)CC3)cc2)nc1Nc1cccc(S(=O)(=O)NC(C)(C)C)c1 [TG101209] | efficiently decreased | reduced proliferation of HEL cells very effectively | increased phosphorylation of Jak2 | strongly reduced phosphorylation of STAT5 |  | efficiently decreased |  | 92 ± 18 | IC50 (HEL cells [2]; HEL cells, 72 hrs, mean ± SD): 243 ± 41 nM; IC50 [6, 18]: 125 ± 45 nM; concentration at which nuclei size increases [15]: did not show this effect; also recorded: did not have this effect; effect on cell cycle profile (HEL cells [7]): reduction in the G2/M peak intensity; effect on histone H3 phosphorylation [8]: only very little effect; IC50 [13, 19]: 156 ± 10 nM; effect on HEL cell size (HEL cells [9]): not observed
Cc1cnc(Nc2ccc(OCCN3CCCC3)cc2)nc1Nc1cccc(S(=O)(=O)NC(C)(C)C)c1 [TG101348] | efficiently decreased | showed the same effects but were less efficient | increased phosphorylation of Jak2 | showed the same effects but were less efficient |  | efficiently decreased |  | 636 ± 203 | IC50 (HEL cells [2]; Homo sapiens, HEL, 72 h): 725 ± 85 nM; IC50 [6]: 385 ± 61 nM; concentration at which nuclei size increases [15]: did not have this effect; IC50 [4, 16]: ~600 nM; IC50 ([13]; 24 h): 850 ± 101 nM
C[C@H](NC(=O)/C(C#N)=C/c1cccc(Br)n1)c1ccccc1 [WP1066] | did not inhibit STAT5 phosphorylation | moderate effect | not observed | did not inhibit the phosphorylation of STAT5 | No inhibition | did not inhibit STAT5 phosphorylation |  |  | IC50 values, STAT-reporter gene assay [13, 19]: No inhibition
